Here are results for two compounds from US9227953B2, “Crystal form” (Glaxo Group Limited, priority 2011, dated 2016).

What all share (assay type): physicochemical
One data set in a line: Dynamic Vapor Sorption. As to conditions: product of Example 1(d). As for the experimental part: The product was characterized in several ways and determined to be the form termed Form 1 rilapladib. It provided an XRPD pattern as represented in FIG. 3, a Raman spectrum as represented in FIG. 4, and a capillary melting point of 116-118° C.
The nature of data set [1]: chemical stability of the crystal form.
The nature of data set [2]: relative thermodynamic stability of rilapladib crystal forms. The following applies: compared with other crystalline forms of rilapladib.

Take `COCCN1CCC(N(Cc2ccc(-c3ccc(C(F)(F)F)cc3)cc2)C(=O)Cn2c(SCc3cccc(F)c3F)cc(=O)c3ccccc32)CC1` [Form 1 rilapladib, N-[1-(2-methoxyethyl)-piperidin-4-yl]-2-[2-(2,3-difluorobenzylthio)-4-oxo-4H-quinolin-1-yl]-N-(4′-trifluoromethylbiphenyl-4-ylmethyl)acetamide]: the “hygroscopicity by Dynamic Vapor Sorption” value in the data set “Dynamic Vapor Sorption” is listed as “non-hygroscopic”.
As for `COCCN1CCC(N(Cc2ccc(-c3ccc(C(F)(F)F)cc3)cc2)C(=O)Cn2c(SCc3cccc(F)c3F)cc(=O)c3ccccc32)CC1` [rilapladib Form 3, N-[1-(2-methoxyethyl)-piperidin-4-yl]-2-[2-(2,3-difluorobenzylthio)-4-oxo-4H-quinolin-1-yl]-N-(4′-trifluoromethylbiphenyl-4-ylmethyl)acetamide], the chemical stability result in data set [1] is reported as “very good chemical stability”. The thermodynamic stability entry in data set [2] is “more thermodynamically stable than Form 1 and Form 2”.
